Patent US11578012B2, “Use of N-functionalized alkoxy pyrazole compounds as nitrification inhibitors” (BASF SE, priority 2018, dated 2023)

Test: volatility (statement on prior-art compound)
Assay type: physicochemical
Conditions: qualitative statement, no method given

- volatility: high volatility
SMILES: CCOc1cc(C)[nH]n1 [3-ethoxy-5-methylpyrazole]
